Laboratory results from publication PMC9635925, “Biological screening of a unique drug library targeting MRGPRX2” (Frontiers in Immunology, 2022).
Residue numbers refer to the chain shown, from its start. Counter-ions that a name gives are not always drawn.

Key:
[1] = biological target: T1, MRGPRX2-WT (wild-type MRGPRX2 receptor) (Homo sapiens, UniProt Q96LB1); experiment: Primary HTS, Ca2+ mobilization (fluorescence ratio, B-score) in HEK293-Gα15 cells stably expressing wild-type MRGPRX2; assay type: cell-based; settings: 10 μM compound
T1 construct: expressed in transfected cells
T1 sequence (Q96LB1 1-330): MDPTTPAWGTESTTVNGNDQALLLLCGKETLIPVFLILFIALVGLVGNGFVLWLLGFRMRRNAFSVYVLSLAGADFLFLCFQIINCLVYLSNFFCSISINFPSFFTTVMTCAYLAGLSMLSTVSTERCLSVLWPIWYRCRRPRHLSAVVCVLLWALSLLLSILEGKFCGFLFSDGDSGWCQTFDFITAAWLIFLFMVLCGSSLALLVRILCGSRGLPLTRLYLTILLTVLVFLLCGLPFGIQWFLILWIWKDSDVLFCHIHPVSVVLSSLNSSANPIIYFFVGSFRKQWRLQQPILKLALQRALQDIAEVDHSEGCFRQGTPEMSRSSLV

[2] = biological target: T2, MRGPRX2-MUT (MRGPRX2 N62S mutation) (Homo sapiens, UniProt Q96LB1, N62S); experiment: Primary HTS, Ca2+ mobilization (fluorescence ratio, B-score) in HEK293-Gα15 cells stably expressing the MRGPRX2 N62S mutation; assay type: cell-based; settings: for B-scores (MUT): 10 μM compound, MRGPRX2-MUT (N62S) cells; for Change of B-scores (%): 10 μM
T2 construct: expressed in transfected cells
T2 sequence (Q96LB1 1-330 N62S): T1 sequence (Q96LB1 1-330) with N62S

LAD2 cells = experiment: β-hexosaminidase release (degranulation) in human mast cell line LAD2; assay type: cell-based
Description: (§1) The human mast cell line LAD2 (Laboratory of Allergic Diseases-2) was obtained from Dean Metcalfe, MD (National Institute of Allergy and Infectious Diseases, National Institutes of Health, Bethesda, MD). […] We included two negative and two positive controls for the validation experiments in LAD2 cells. […] Additionally, vehicle control (without any drugs) was also included as the negative control. Drugs were dissolved in PBS (vehicle) and six concentrations were tested for each drug; the known MRGPRX2 agonist C48/80 (10 μg/mL) and Tween 20 (1%), which is a known mast cell activator via MRGPRX2 independent mechanism, were used as positive controls. Two-way ANOVA with the Sidak multiple comparisons test was used for statistical analysis (n=6).
(§2) We further investigated whether these newly discovered candidate drugs can serve as agonists for MRGPRX2-dependent activation of MCs.

[3] = tested on: MRGPRX2-deficient LAD2 cells; experiment: β-hexosaminidase release in MRGPRX2-deficient LAD2 cells (CRISPR/Cas9); assay type: cell-based, human; settings: two-way ANOVA, P< 0.0001
Description: as §1, §2

[4] = MRGPRX2-MUT in comparison to MRGPRX2-WT cells, Supplementary Table 1
[5] = MRGPRX2-MUT in comparison to MRGPRX2-WT cells, Table 1
[6] = MRGPRX2-MUT versus MRGPRX2-WT cells, Supplementary Table 2

Molecule | B-scores (WT) ([1]; Supplementary Table 1) | B-scores (WT) ([1]; Supplementary Table 2) | B-scores (WT) ([1]; Table 1) | B-scores (MUT) ([2]; Supplementary Table 1) | B-scores (MUT) ([2]; Supplementary Table 2) | B-scores (MUT) ([2]; Table 1) | Change of B-scores (%) [2, 4] [%] | Change of B-scores (%) [2, 5] [%] | Change of B-scores (%) [2, 6] [%] | β-hexosaminidase release (LAD2 cells; at 500 μM) [%] | degranulation (β-hexosaminidase release) in LAD2 cells lacking MRGPRX2 [3] | β-hexosaminidase release (LAD2 cells; at 125 μM) [%]
Cc1ccc(NC(=O)c2ccc(CN3CCN(C)CC3)cc2)cc1Nc1nccc(-c2cccnc2)n1 [Imatinib Mesylate] | – | – | – | – | – | – | – | – | – | – | decreased to the level of vehicle controls | 58.42
N=C(N)c1ccc(OCCCCCOc2ccc(C(=N)N)cc2)cc1 [Pentamidine Isethionate] | 37.48 | – | – | 0.43 | – | – | -98.84 | – | – | – | – | –
N=C(N)c1ccc(OCCCCCOc2ccc(C(=N)N)cc2)cc1 [Pentamidine] | 24.12 | – | – | 8.70 | – | – | -63.92 | – | – | – | – | –
CNCCCC1c2ccccc2C=Cc2ccccc21 [Protriptyline Hydrochloride] | 24.43 | – | 24.43 | 3.59 | – | 3.59 | -85.30 | -85.30 | – | – | – | –
CCOC(=O)[C@H](CCc1ccccc1)N[C@@H](C)C(=O)N1[C@H](C(=O)O)C[C@@H]2CCC[C@@H]21 [Ramipril] | 22.18 | – | – | 31.66 | – | – | 42.73 | – | – | – | – | –
O=C(O)c1cn(-c2ccc(F)cc2)c2cc(N3CCNCC3)c(F)cc2c1=O [Sarafloxacin hydrochloride] | – | 15.97 | – | – | 0 | – | – | – | -100 | – | – | –
C[CH2][Hg][S]c1ccccc1C(=O)[O-].[Na+] [Thimerosal] | 18.55 | – | – | 0.33 | – | – | -98.25 | – | – | – | – | –
CN1CCN(CC/C=C2/c3ccccc3Sc3ccc(S(=O)(=O)N(C)C)cc32)CC1 [Thiothixene] | 20.36 | – | 20.36 | 5.11 | – | 5.11 | -74.90 | -74.90 | – | – | – | –
CN(C)CCCN1c2ccccc2Sc2ccc(C(F)(F)F)cc21 [Triflupromazine Hydrochloride] | – | 8.62 | – | – | 0.85 | – | – | – | -90.15 | – | – | –
CC(CN(C)C)CN1c2ccccc2Sc2ccccc21.CC(CN(C)C)CN1c2ccccc2Sc2ccccc21.O=C(O)C(O)C(O)C(=O)O (centres unmarked) [Trimeprazine Tartrate] | 27.11 | – | – | 19.11 | – | – | -29.51 | – | – | – | – | –
COc1cc(C(=O)NCc2ccc(OCCN(C)C)cc2)cc(OC)c1OC [Trimethobenzamide Hydrochloride] | 18.56 | – | – | 0.14 | – | – | -99.27 | – | – | – | – | –
COc1ccc(CCN(C)CCCC(C#N)(c2ccc(OC)c(OC)c2)C(C)C)cc1OC (centres unmarked) [Verapamil Hydrochloride] | – | 9.68 | – | – | 1.41 | – | – | – | -85.46 | – | – | –
COc1ccc(CCN(C)CCCC(C#N)(c2ccc(OC)c(OC)c2)C(C)C)cc1OC (centres unmarked) [Verapamil] | – | 5.44 | – | – | -1.44 | – | – | – | -126.44 | – | – | –

Further lines, with some results ahead:

B-scores (WT) ([1]; Supplementary Table 1) | B-scores (WT) ([1]; Supplementary Table 2) | B-scores (WT) ([1]; Table 1) | B-scores (MUT) ([2]; Supplementary Table 1) | B-scores (MUT) ([2]; Supplementary Table 2) | B-scores (MUT) ([2]; Table 1) | Change of B-scores (%) [2, 4] [%] | Change of B-scores (%) [2, 5] [%] | Change of B-scores (%) [2, 6] [%] | Molecule | β-hexosaminidase release (LAD2 cells; at 500 μM) [%] | degranulation (β-hexosaminidase release) in LAD2 cells lacking MRGPRX2 [3] | β-hexosaminidase release (LAD2 cells; at 125 μM) [%]
41.41 | 41.41 | 41.41 | 1.21 | 1.21 | 1.21 | -97.07 | -97.07 | -97.07 | CN(C)CCC(c1ccc(Br)cc1)c1ccccn1 (centres unmarked) [Brompheniramine Maleate] | 56.43 | decreased to the level of vehicle controls | –
– | 7.86 | – | – | -0.79 | – | – | – | -110.02 | CCn1cc(C(=O)O)c(=O)c2cc(F)c(N3CCN(C)CC3)cc21.CS(=O)(=O)O [Pefloxacine Mesylate] | – | – | –
39.73 | – | – | 1.29 | – | – | -96.75 | – | – | CN1CCC(=C2c3ccccc3CCc3sccc32)CC1.O=C(O)CC(O)C(=O)O [Pizotyline Malate] | – | – | –
23.47 | 23.47 | 23.47 | 8.13 | 8.13 | 8.13 | -65.37 | -65.37 | -65.37 | CN(C)CCCN1c2ccccc2Sc2ccccc21 [Promazine Hydrochloride] | – | – | –
– | 13.36 | – | – | 0.23 | – | – | – | -98.24 | COc1ccc(CN(CCN(C)C)c2ccccn2)cc1 [Pyrilamine] | – | – | –
23.94 | – | 23.94 | 0.37 | – | 0.37 | -98.45 | -98.45 | – | CO[C@H]1/C=C/O[C@@]2(C)Oc3c(C)c(O)c4c(O)c(c(/C=N/N5CCN(C)CC5)c(O)c4c3C2=O)NC(=O)/C(C)=C\C=C\[C@H](C)[C@H](O)[C@@H](C)[C@@H](O)[C@@H](C)[C@H](OC(C)=O)[C@@H]1C [Rifampin] | – | – | –
19.85 | – | 19.85 | – | – | -0.15 | -100.76 | -100.76 | – | CN1CCN(c2c(F)cc3c(=O)c(C(=O)O)cn4c3c2SCC4)CC1.Cl [Rufloxacin Hydrochloride] | – | – | –
– | 13.61 | – | – | 0.36 | – | – | – | -97.38 | CC(C)(C)NCC(O)c1ccc(O)c(CO)c1 (centres unmarked) [Salbutamol] | – | – | –
– | 7.75 | – | – | 1.08 | – | – | – | -86.07 | CN1CCN(CCCN2c3ccccc3Sc3ccc(C(F)(F)F)cc32)CC1 [Stelazine] | – | – | –
– | 15.97 | – | – | 1.91 | – | – | – | -88.03 | CC(C)(C)NCC(O)c1cc(O)cc(O)c1.CC(C)(C)NCC(O)c1cc(O)cc(O)c1.O=S(=O)(O)O (centres unmarked) [Terbutaline Hemisulfate] | – | – | –
33.23 | – | 33.23 | 1.69 | – | 1.69 | -94.91 | -94.91 | – | COc1ccc(CN(CCN(C)C)c2ncccn2)cc1 [Thonzylamine Hydrochloride] | – | – | –
23.09 | – | 23.09 | 3.48 | – | 3.48 | -84.91 | -84.91 | – | CC(CN(C)C)CN1c2ccccc2CCc2ccccc21 (centres unmarked) [Trimipramine Maleate] | – | – | –
20.71 | – | 20.71 | 0.68 | – | 0.68 | -96.71 | -96.71 | – | Cc1ccc(/C(=C\CN2CCCC2)c2ccccn2)cc1.Cl [Triprolidine Hydrochloride] | – | – | –
20.22 | – | 20.22 | – | – | -0.17 | – | – | – | Bacitracin A | 61.94 | decreased to the level of vehicle controls | –
20.46 | – | 20.46 | 5.73 | – | 5.73 | -71.99 | -71.99 | – | Buserelin | – | – | –
37.20 | – | – | 15.06 | – | – | -59.51 | – | – | Corticotropin A (SYSMEHFRWGKPVGKKRRPVKVYPNGAEDESAEAFPLEF; Corticotropin; UniProt P01189 138-176, looked up) [Adrenocorticotropic hormone (ACTH)] | – | – | –
